The text below walks through data of patent publication EP1582590A1, “Sequential intracellular screening method” (Aptanomics, priority 2004, dated 2005).

Like-named read-outs stand apart in the source and are kept apart here.

What all share (assay type): cell-based
The target in one assay is TGF-β-R/FKBP12 (Rattus norvegicus, UniProt Q62658). Description: luminescent yeast two-hybrid assay, inhibition of protein interaction by small molecules (luc reporter). How it is done:
They were grown from frozen transformants.
(§1) 20µl of yeast cultures were delivered into 96 well half area white plates (Coming-Costar, ref. 3693). When applicable, 2µl of either DMSO 10% or 10µM of small molecules were added. 2µl of Galactose 20% were added to the wells to induce the expression of the preys. When two different yeast cultures were mixed in a single well, 10µl of each culture were used, to reach a total of 20µl. Plates were incubated at room temperature and left non-agitated for various times. To reveal the activity of both luciferases, a Dual-Glo™ luciferase assay system was used (Promega, ref. E2920) according to the instructions of the manufacturer. Briefly, to lyse the yeast and reveal the activity of firefly luciferase, 25µl of reagent was added and the plates were incubated for another 40 to 60min at room temperature, without agitation, before being read in a luminometer. To reveal the activity of Renilla luciferase, 25µl of "stop&glo reagent" were added to the wells and the plates were incubated for another 60min at room temperature, without agitation, before a second reading. Luminescence was measured by a Trilux (Perkin Elmer) setting the integration at 1sec/well. Values are given in LCPS (1LCPS = 100 counts per sec).

In assay [1] the target is T1, interaction between Trα and NCoR (Homo sapiens, UniProt P10827).
T1 construct: expressed in transfected cells; host or cells: Saccharomyces cerevisiae TB50 (WT and ERG6-deleted)
T1 sequence (P10827 1-410 isoform P10827-2): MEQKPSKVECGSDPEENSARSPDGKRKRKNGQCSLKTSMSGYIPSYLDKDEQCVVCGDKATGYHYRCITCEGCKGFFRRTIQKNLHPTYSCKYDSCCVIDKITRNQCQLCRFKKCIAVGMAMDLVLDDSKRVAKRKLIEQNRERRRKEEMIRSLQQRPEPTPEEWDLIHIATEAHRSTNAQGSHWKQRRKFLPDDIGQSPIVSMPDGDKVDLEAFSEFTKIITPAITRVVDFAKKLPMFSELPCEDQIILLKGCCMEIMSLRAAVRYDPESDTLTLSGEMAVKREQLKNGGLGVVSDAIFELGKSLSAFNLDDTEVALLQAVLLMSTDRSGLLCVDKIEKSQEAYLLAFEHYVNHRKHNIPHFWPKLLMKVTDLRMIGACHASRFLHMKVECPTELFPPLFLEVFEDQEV
Description: dual (duplex) two-hybrid assay, two yeast populations mixed in one well, ruc signal. How it is done:
(§2) Yeast strains TB50 WT and TB50 ERG6 were transformed as described in Figure 1. They were grown from frozen transformants. For each strain, the two yeast cultures containing the two protein interactions were mixed together and delivered into a microwell plate. […] Experiments were performed in duplicates. The values are normalized with the signals obtained in presence of DMSO.
as §1, with “To reveal the activity of both luciferases, a Dual-Glo™ luciferase assay system was used (Promega, ref. E2920) according to the instructions of the manufacturer.” left out, “Values are given in LCPS (1LCPS = 100 counts per sec).” left out

Assay [2] relates to lexA-TGFβ-R and B42-FKBP12. Kind of assay: dual (duplex) two-hybrid assay, two yeast populations mixed in one well, luc signal. How it is done:
as §2
as §1, with “To reveal the activity of both luciferases, a Dual-Glo™ luciferase assay system was used (Promega, ref. E2920) according to the instructions of the manufacturer.” left out, “Values are given in LCPS (1LCPS = 100 counts per sec).” left out

Sequence of TGF-β-R/FKBP12 (Q62658 whole entry): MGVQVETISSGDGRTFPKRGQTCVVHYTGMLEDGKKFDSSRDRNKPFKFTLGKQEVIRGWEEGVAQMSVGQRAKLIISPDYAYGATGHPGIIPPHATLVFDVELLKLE
Sequence of TGF-β-R/FKBP12 (P80204 146-501 partner): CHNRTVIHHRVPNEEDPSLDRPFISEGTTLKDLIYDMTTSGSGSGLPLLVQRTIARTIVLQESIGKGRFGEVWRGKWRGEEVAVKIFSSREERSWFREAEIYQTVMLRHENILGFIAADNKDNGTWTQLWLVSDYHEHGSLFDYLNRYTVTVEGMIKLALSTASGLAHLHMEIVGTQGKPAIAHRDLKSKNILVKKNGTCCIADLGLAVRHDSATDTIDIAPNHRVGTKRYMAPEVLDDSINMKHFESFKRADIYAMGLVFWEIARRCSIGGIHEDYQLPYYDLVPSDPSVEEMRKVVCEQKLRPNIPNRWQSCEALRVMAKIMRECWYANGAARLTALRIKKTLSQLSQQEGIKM

On to `C=CC[C@@H]1/C=C(\C)C[C@H](C)C[C@H](OC)[C@H]2O[C@@](O)(C(=O)C(=O)N3CCCC[C@H]3C(=O)O[C@H](/C(C)=C/[C@@H]3CC[C@@H](O)[C@H](OC)C3)[C@H](C)[C@@H](O)CC1=O)[C@H](C)C[C@@H]2OC` [FK506], for which the inhibition (in general, how much of the control response was suppressed) at 10 µM at TGF-β-R/FKBP12 (read-out: % Inhibition 10µM, Addition of compound C 23h after induction of prey (partner B), plates read 5h later, TB50 WT) was 46%; at TGF-β-R/FKBP12 (read-out: % Inhibition 10µM, Addition of compound C before induction of prey (partner B), 5h induction time, TB50 WT) it was 80%; on TGF-β-R/FKBP12 (read-out: inhibition of two-hybrid signals, 10µM FK506, maximum inhibition after 4h of induction time), above 90%. Also, the “inhibition of the ruc two-hybrid signal” value in assay [1] (ERG6 deleted strain, high concentration of FK506, non-cognate interaction, duplex, induction time 5h) amounted to 40%.

Regarding `C[C@@H]1C[C@@H]([C@H](O)CC2CC(=O)NC(=O)C2)C(=O)[C@@H](C)C1` [cycloheximide], the “effect on luc two-hybrid signal” value in assay [2] was “strongly inhibited both two-hybrid signals”. Moreover, the “effect on ruc two-hybrid signal” value in assay [1] is recorded as “strongly inhibited both two-hybrid signals”.
